Assay: Fluorometric analysis, excitation and emission spectra
Assay type: physicochemical
Conditions: FIG. 4
Procedure: For the synthesis of a nile blue-DTPA conjugate, 0.1 g of DTPA dianhydride (ccDPTA) was dissolved in 6 ml of dimethyl sulfoxide (DMSO) in a round bottom flask. Ninety mg of nile blue were dissolved in DMSO and 36 μL of triethyl amine were added, turning the solution purple. The nile blue solution was added drop wise to the solution of ccDTPA while stirring. The solution turned blue. Thirty-eight μL of […] (TEA) were added to the final mixture, turning the solution purple. After mixing, the mixture was heated to 60° C. and stirred for 2 hours. The reaction mixture was then loaded onto a silica gel column and eluted with acetone:ethylacetate. The fractions corresponding to the nile blue-DTPA conjugate were pooled and evaporated, yielding a magenta colored oil. The oil was rechromatographed on a second silica gel column using acetone as eluant. The nile blue-DTPA conjugated fractions were pooled and rotate-evaporated to give a magenta colored oil. […]
The only group of chelating agents known to produce highly soluble and stable lanthanide chelates are the polyamino polyacetic acid analogs. […] The simplest initial approach was to study the fluorescence characteristics of the chelate between Eu and other already commercially available polyaminopoly bis (2-aminoethyl ether) acetic acids. […]

emission fluorescence: 695 nm
maximal excitation: approximately 390 nm
SMILES: CC[N+](CC)=c1ccc2nc3c(cc(N)c4ccccc43)oc-2c1 [nile blue]

— patent US6440389B1, “Fluorescent agents for real-time measurement of organ function” (The General Hospital Corporation, priority 2000, dated 2002)
